Assay results reported in ChEMBL document CHEMBL5150006, “Inhibition of Histone Deacetylase 6 (HDAC6) as a therapeutic strategy for Alzheimer's disease: A review (2010-2020)” (Eur J Med Chem, 2021).
Values belong to the molecule of their own block, whether it stands above or below them.

Key:
[1] = molecular target: T1, Protein deacetylase HDAC6 (Homo sapiens, UniProt Q9UBN7); experiment: Inhibition of HDAC6 (unknown origin) by microtiter plate reader analysis
T1 sequence (Q9UBN7 whole entry): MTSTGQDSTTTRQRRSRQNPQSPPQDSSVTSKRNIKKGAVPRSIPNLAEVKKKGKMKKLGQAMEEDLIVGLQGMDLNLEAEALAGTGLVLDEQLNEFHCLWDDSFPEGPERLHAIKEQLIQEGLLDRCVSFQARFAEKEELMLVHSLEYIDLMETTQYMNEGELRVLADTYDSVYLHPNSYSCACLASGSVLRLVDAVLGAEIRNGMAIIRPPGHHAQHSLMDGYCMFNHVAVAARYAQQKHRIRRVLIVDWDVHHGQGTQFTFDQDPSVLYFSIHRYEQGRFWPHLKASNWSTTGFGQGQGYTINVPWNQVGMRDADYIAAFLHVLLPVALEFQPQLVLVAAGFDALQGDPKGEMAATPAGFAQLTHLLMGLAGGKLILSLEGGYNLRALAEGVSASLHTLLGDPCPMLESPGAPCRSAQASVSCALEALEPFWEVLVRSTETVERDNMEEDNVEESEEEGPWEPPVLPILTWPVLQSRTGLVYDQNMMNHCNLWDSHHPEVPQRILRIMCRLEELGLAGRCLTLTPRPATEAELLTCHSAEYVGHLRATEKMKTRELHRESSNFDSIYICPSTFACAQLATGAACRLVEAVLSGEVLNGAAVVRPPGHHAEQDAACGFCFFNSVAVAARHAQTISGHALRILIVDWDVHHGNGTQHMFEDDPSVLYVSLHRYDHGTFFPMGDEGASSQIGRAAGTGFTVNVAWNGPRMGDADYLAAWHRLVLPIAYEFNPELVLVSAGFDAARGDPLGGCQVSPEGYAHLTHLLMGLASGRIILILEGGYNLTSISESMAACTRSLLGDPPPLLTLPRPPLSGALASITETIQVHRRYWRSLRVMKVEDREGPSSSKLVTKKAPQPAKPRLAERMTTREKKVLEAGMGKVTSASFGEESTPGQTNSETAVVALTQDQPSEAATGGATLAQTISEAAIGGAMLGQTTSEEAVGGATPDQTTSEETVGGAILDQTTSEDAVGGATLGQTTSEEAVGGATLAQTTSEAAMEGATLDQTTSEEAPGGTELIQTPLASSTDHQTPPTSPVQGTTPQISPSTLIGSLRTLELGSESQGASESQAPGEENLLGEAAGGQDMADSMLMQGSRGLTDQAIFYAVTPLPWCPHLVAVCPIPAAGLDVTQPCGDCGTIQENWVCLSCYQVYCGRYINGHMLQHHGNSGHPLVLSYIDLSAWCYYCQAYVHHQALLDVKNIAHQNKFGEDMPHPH

in vivo = conditions: mouse, brain and plasma
[2] = Half life in mouse plasma measured for 5 to 60 mins by HPLC/MS/MS analysis; type: ADME, cell-free; conditions: time 5-60 min
[3] = molecular target: T1, Protein deacetylase HDAC6; experiment: Inhibition of HDAC6 in human SH-SY5Y cells measured after 2 hrs by Western blot analysis; type: cell-based
[4] = molecular target: High affinity cGMP-specific 3',5'-cyclic phosphodiesterase 9A (Homo sapiens, UniProt O76083); experiment: Inhibition of PDE9 in human SH-SY5Y cells measured after 2 hrs by Western blot analysis; type: cell-based
[5] = molecular target: Glutamate [NMDA] receptor; experiment: Binding affinity to NMDAR (unknown origin) assessed as inhibition constant by [3H]MK-801 binding assay; type: protein-complex assay, Homo sapiens
[6] = molecular target: T1, Protein deacetylase HDAC6; experiment: Inhibition of HDAC6 in human HeLa cells measured after 2 hrs by Western blot analysis; type: cell-based

Sequence of High affinity cGMP-specific 3',5'-cyclic phosphodiesterase 9A (O76083 whole entry): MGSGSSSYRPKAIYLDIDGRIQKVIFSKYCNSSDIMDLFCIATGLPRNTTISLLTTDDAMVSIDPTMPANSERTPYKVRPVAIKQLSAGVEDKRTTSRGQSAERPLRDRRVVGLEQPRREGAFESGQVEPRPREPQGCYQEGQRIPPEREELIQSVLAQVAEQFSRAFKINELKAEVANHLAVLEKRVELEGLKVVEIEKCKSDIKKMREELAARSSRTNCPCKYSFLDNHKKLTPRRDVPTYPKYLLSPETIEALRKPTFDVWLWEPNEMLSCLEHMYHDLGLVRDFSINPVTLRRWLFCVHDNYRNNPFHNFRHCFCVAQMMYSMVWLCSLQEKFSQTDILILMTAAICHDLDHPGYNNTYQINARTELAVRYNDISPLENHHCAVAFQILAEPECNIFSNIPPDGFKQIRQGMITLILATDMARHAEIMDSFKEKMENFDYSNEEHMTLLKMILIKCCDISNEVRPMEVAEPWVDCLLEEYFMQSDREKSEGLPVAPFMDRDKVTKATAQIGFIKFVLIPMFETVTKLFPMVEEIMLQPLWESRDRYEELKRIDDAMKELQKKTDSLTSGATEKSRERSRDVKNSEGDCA

half-life [2]: 30 min
Kp (in vivo): 1.26
SMILES: O=C(NO)c1cnc(NC2(c3cccc(F)c3)CCCCC2)nc1

IC50 [3]: 107 nM
IC50 [4]: 40 nM
SMILES: C[C@@H]1CN(Cc2ccc(C(=O)NO)cc2)C[C@H]1c1nc2c(cnn2C2CCCC2)c(=O)[nH]1

Ki [5]: 590 nM
IC50 [6]: 180 nM
SMILES: CC12CC3CC(C)(C1)CC(NC(=O)/C=C/c1ccc(C(=O)NO)cc1)(C3)C2

The remaining lines, values behind:

SMILES: CCN(CC)c1ccc(C(=O)NCCCCCCC(=O)NO)cc1
IC50 [1]: 0.0095 nM

SMILES: CN1CCc2c(c3ccccc3n2Cc2ccc(C(=O)NO)cc2)C1 [TUBASTATIN A]
Kp (in vivo): 1.22

SMILES: O=C(NO)c1cnc(NC2(c3ccccc3)CC2)nc1
half-life [2]: 12 min
